According to US9273057B2 (Bristol-Myers Squibb Company, priority 2012, dated 2016):

Target: CK2A1 (CK2α/β) (Homo sapiens, UniProt P68400)
Assay: CK2 kinase assay, CK2A1 (CK2α/β)
Type: biochemical
Conditions: Table A; read-out: CK2A1 (CK2α/β) (IC50)

Chain of CK2A1 (CK2α/β) (P68400 whole entry, species assumed): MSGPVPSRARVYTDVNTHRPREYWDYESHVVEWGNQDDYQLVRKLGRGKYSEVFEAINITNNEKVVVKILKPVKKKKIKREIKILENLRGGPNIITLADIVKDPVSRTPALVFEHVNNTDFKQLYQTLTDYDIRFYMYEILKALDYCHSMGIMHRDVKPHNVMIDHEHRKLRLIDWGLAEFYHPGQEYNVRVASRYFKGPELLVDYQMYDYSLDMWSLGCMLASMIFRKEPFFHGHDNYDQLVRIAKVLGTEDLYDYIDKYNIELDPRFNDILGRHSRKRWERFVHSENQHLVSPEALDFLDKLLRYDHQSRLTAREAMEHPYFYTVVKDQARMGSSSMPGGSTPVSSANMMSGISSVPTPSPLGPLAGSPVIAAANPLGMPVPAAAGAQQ
Chain of CK2A1 (CK2α/β) (P67870 whole entry partner, species assumed): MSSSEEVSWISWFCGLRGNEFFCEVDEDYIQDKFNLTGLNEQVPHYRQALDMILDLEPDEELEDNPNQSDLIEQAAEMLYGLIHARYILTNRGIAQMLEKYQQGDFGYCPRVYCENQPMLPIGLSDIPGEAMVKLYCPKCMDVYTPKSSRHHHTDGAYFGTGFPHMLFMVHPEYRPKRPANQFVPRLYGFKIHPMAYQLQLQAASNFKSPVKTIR

SMILES	IC50 [nM]
N#Cc1cc(Nc2nc(NC3CC3)c3ncc(C#N)n3n2)c(Cl)c(N2CCN(CC(=O)NS(=O)(=O)C3CC3)CC2)c1 [Example 599, 2-[4-(2-chloro-5-cyano-3-{[7-cyano-4-(cyclopropylamino)imidazo [2,1-f][1,2,4]triazin-2-yl]amino}phenyl)piperazin-1-yl]-N-(cyclopropanesulfonyl) acetamide]	0.4
CC(=O)N1CC(N2CCN(c3cc(C#N)cc(Nc4nc(NC5CC5)c5ncc(C#N)n5n4)c3Cl)CC2)C1 [Example 480, 2-({3-[4-(1-acetylazetidin-3-yl)piperazin-1-yl]-2-chloro-5-cyanophenyl}amino)-4-(cyclopropylamino)imidazo[2,1-f][1,2,4]triazine-7-carbonitrile]	0.86
CCNc1nc(Nc2cc(C#N)cc(N3CC[C@@H](NC(=O)OC)[C@H](OC(=O)[C@@H](C)OP(=O)(O)O)C3)c2Cl)nn2c(C#N)cnc12 [Example 342, (R)-(3R,4R)-1-(2-chloro-5-cyano-3-((7-cyano-4-(ethylamino)imidazo[2,1-f][1,2,4]triazin-2-yl)amino)phenyl)-4-((methoxycarbonyl)amino)piperidin-3-yl 2-(phosphonooxy)propanoate]	0.37
N#Cc1cc(Nc2nc(NC3CC3)c3ncc(C#N)n3n2)c(Cl)c(N2CCC(C(CO)CO)CC2)c1 [Example 526, 2-((2-chloro-5-cyano-3-(4-(1,3-dihydroxypropan-2-yl)piperidin-1-yl)phenyl)amino)-4-(cyclopropylamino)imidazo[2,1-f][1,2,4]triazine-7-carbonitrile]	0.42
CCNc1nc(Nc2cc(C#N)cc(N3CC[C@@H](NC(=O)OC)[C@H](OC(=O)[C@H](C)O)C3)c2Cl)nn2c(C#N)cnc12 [Example 341, (S)-(3R,4R)-1-(2-chloro-5-cyano-3-((7-cyano-4-(ethylamino)imidazo[2,1-f][1,2,4]triazin-2-yl)amino)phenyl)-4-((methoxycarbonyl)amino)piperidin-3-yl 2-hydroxypropanoate]	1
N#Cc1cc(Nc2nc(NC3CC3)c3ncc(C#N)n3n2)c(Cl)c(N2CCN(C3CCC3=O)CC2)c1 (centres unmarked) [Example 62, 2-((2-chloro-5-cyano-3-(4-(2-oxocyclobutyl)piperazin-1-yl)phenyl)amino)-4-(cyclopropylamino) imidazo[2,1-f][1,2,4] triazine-7-carbonitrile]	3.02
COC(=O)N[C@H]1CN(C2CN(c3cc(C#N)cc(Nc4nc(NC5CC5)c5ncc(C#N)n5n4)c3Cl)C2)CC1OC (stereo in doubt) [Example 298, methyl ((3S,4R)-1-(1-(2-chloro-5-cyano-3-((7-cyano-4-(cyclopropylamino)imidazo[2,1-f][1,2,4]triazin-2-yl)amino)phenyl)-3-azetidinyl)-4-methoxy-3-pyrrolidinyl)carbamate]	0.49
CCNc1nc(Nc2ccc3c(c2)c(C#N)cn3C2CCN(C3CN(C4COC4)C3)CC2)nn2c(C#N)cnc12 [Example 835, 2-((3-cyano-1-(1-(1-(oxetan-3-yl)azetidin-3-yl)piperidin-4-yl)-1H-indol-5-yl)amino)-4-(ethylamino)imidazo[2,1-f][1,2,4]triazine-7-carbonitrile]	0.98
CC[C@H]1CN(c2cc(C#N)cc(Nc3nc(NC4CC4)c4ncc(C#N)n4n3)c2Cl)C[C@H]1NC(=O)OC (racemic) [Example 292, (+/−) methyl ((3S,4S)-1-(2-chloro-5-cyano-3-((7-cyano-4-(cyclopropylamino)imidazo[2,1-f][1,2,4]triazin-2-yl)amino)phenyl)-4-ethyl-3-pyrrolidinyl)carbamate]	2
N#Cc1cc(Nc2nc(NC3CC3)c3ncc(C#N)n3n2)c(F)c(N2CCN(CC(O)CF)CC2)c1 (centres unmarked) [Example 549, 2-((5-cyano-2-fluoro-3-(4-(3-fluoro-2-hydroxypropyl)piperazin-1-yl)phenyl)amino)-4-(cyclopropylamino)imidazo[2,1-f][1,2,4]triazine-7-carbonitrile]	1.25
CN1CCN(CCC(F)(F)c2cc(C#N)cc(Nc3nc(NC4CC4)c4ncc(C#N)n4n3)c2Cl)CC1 [Example 738, 2-((2-chloro-5-cyano-3-(1,1-difluoro-3-(4-methylpiperazin-1-yl)propyl)phenyl)amino)-4-(cyclopropylamino)imidazo[2,1-f][1,2,4]triazine-7-carbonitrile]	0.27
CC(C)(O)CNC1CCN(c2cc(C#N)cc(Nc3nc(NC4CC4)c4ncc(C#N)n4n3)c2Cl)CC1 [Example 143, 2-((2-chloro-5-cyano-3-(4-((2-hydroxy-2-methylpropyl)amino)-1-piperidinyl)phenyl)amino)-4-(cyclopropylamino)imidazo [2,1-f][1,2,4]triazine-7-carbonitrile]	0.78
N#Cc1cc(Nc2nc(NC3CC3)c3ncc(C#N)n3n2)c(Cl)c(N2CCC3(CC2)CNC3)c1 [Example 792, 2-((2-chloro-5-cyano-3-(2,7-diazaspiro[3.5]nonan-7-yl)phenyl)amino)-4-(cyclopropylamino)imidazo[2,1-f][1,2,4]triazine-7-carbonitrile]	1.03
CC(C)(C(N)=O)N1CCC(c2cc(C#N)cc(Nc3nc(NC4CC4)c4ncc(C#N)n4n3)c2Cl)CC1 [Example 641, 2-(4-(2-chloro-5-cyano-3-((7-cyano-4-(cyclopropylamino)imidazo[2,1-f][1,2,4]triazin-2-yl)amino)phenyl)piperidin-1-yl)-2-methylpropanamide]	4.01

Further compounds by falling IC50, results first:

IC50 [nM]	SMILES
7.45	CCC(CO)(CO)C(=O)N1CC(N2CCN(c3cc(C#N)cc(Nc4nc(NC5CC5)c5ncc(C#N)n5n4)c3Cl)CC2)C1 [Example 524, 2-{[3-(4-{1-[2,2-bis(hydroxymethyl)butanoyl]azetidin-3-yl}piperazin-1-yl)-2-chloro-5-cyanophenyl]amino}-4-(cyclopropylamino)imidazo[2,1-f][1,2,4]triazine-7-carbonitrile]
6.07	CC(CC(C)c1cc(Cl)c(Nc2nc(NC3CC3)c3ncc(C#N)n3n2)cc1C#N)NCCC(F)(F)F (single isomer, unassigned) [Example 734, 2-[(2-chloro-5-cyano-4-{4-[(3,3,3-trifluoropropyl)amino]pentan-2-yl}phenyl)amino]-4-(cyclopropylamino) imidazo[2,1-f][1,2,4]triazine-7-carbonitrile]
4.9	N#Cc1cc(Nc2nc(NC3CC3)c3ncc(C#N)n3n2)c(Cl)c(N2CCC3CCN(C4COC4)C3C2)c1 (racemic) [Example 457, (+/−)-2-((2-chloro-5-cyano-3-(1-(oxetan-3-yl)hexahydro-1H-pyrrolo[2,3-c]pyridin-6(2H)-yl)phenyl)amino)-4-(cyclopropylamino)imidazo[2,1-f][1,2,4]triazine-7-carbonitrile]
2.94	CC(C)(O)CNCC1CN(c2cc(C#N)cc(Nc3nc(NC4CC4)c4ncc(C#N)n4n3)c2Cl)CCO1 (centres unmarked) [Example 709, 2-{[2-chloro-5-cyano-3-(2-{[(2-hydroxy-2-methylpropyl)amino]methyl}morpholin-4-yl)phenyl]amino}-4-(cyclopropylamino)imidazo[2,1-f][1,2,4]triazine-7-carbonitrile]
2.43	N#Cc1cc(CN2CCC(F)(F)CC2)c(Cl)c(Nc2nc(NC3CC3)c3ncc(C#N)n3n2)c1 [Example 477, 2-({2-chloro-5-cyano-3-[(4,4-difluoropiperidin-1-yl)methyl]phenyl}amino)-4-(cyclopropylamino)imidazo[2,1-f][1,2,4]triazine-7-carbonitrile]
1.1	COc1ccc(CN2CCN(c3cc(C#N)cc(Nc4nc(NC5CC5)c5ncc(C#N)n5n4)c3Cl)C(=O)C2)cc1 [Example 631, 2-((2-chloro-5-cyano-3-(4-(4-methoxybenzyl)-2-oxopiperazin-1-yl)phenyl)amino)-4-(cyclopropylamino)imidazo[2,1-f][1,2,4]triazine-7-carbonitrile]
1.04	N#Cc1cc(Nc2nc(NC3CC3)c3ncc(C#N)n3n2)c(Cl)c(N2CC[C@H]3[C@H](CCN3C3CS(=O)(=O)CC3O)C2)c1 (stereo in doubt) [Example 453, 2-((2-chloro-5-cyano-3-(1-((3S,4S)-4-hydroxy-1,1-dioxidotetrahydrothiophen-3-yl)hexahydro-1H-pyrrolo[3,2-c]pyridin-5(6H)-yl)phenyl)amino)-4-(cyclopropylamino)imidazo[2,1-f][1,2,4]triazine-7-carbonitrile]
0.9	CCNc1nc(Nc2cc(C#N)cc(N3CC[C@@H](NC(=O)OC)[C@H](N(C)C4COC4)C3)c2Cl)nn2c(C#N)cnc12 [Example 750, methyl ((3R,4R)-1-(2-chloro-5-cyano-3-((7-cyano-4-(ethylamino)imidazo[2,1-f][1,2,4]triazin-2-yl)amino)phenyl)-3-(methyl(oxetan-3-yl)amino)piperidin-4-yl)carbamate]
0.83	CCNc1nc(Nc2cc(C#N)cc(N3CCN(C4CCOC4)CC3)c2Cl)nn2c(C#N)cnc12 (racemic) [Example 103, (+/−) 2-((2-chloro-5-cyano-3-(4-(tetrahydro-3-furanyl)-1-piperazinyl)phenyl)amino)-4-(ethylamino)imidazo [2,1-f][1,2,4]triazine-7-carbonitrile]
0.8	N#Cc1cc(Nc2nc(NC3CC3)c3ncc(C#N)n3n2)c(F)c(N2CCN(C3COC3)CC2)c1 [Example 548, 2-((5-cyano-2-fluoro-3-(4-(oxetan-3-yl)piperazin-1-yl)phenyl)amino)-4-(cyclopropylamino)imidazo[2,1-f][1,2,4]triazine-7-carbonitrile]
0.54	CCNc1nc(Nc2ccc3c(c2)c(C#N)cn3C2CCN(C3CNC3)CC2)nn2c(C#N)cnc12 [Example 832, 2-((1-(1-(azetidin-3-yl)piperidin-4-yl)-3-cyano-1H-indol-5-yl)amino)-4-(ethylamino)imidazo[2,1-f][1,2,4]triazine-7-carbonitrile]
0.48	COC(=O)N1CCC(c2cc(C#N)cc(Nc3nc(NC4CC4)c4ncc(C#N)n4n3)c2Cl)CC1 [Example 226, methyl 4-(2-chloro-5-cyano-3-((7-cyano-4-(cyclopropylamino)imidazo[2,1-f][1,2,4]triazin-2-yl)amino)phenyl)piperidine-1-carboxylate]
